How the values were obtained:
[1] = target: T1, Human indoleamine 2,3-dioxygenasae (IDO) (Homo sapiens, UniProt P14902); assay: Human indoleamine 2,3-dioxygenase (IDO) enzyme assay; type: biochemical; settings: 95 nM IDO, 2 mM D-Trp, pH 6.5, room temperature, absorbance at 321 nm
T1 construct: His tag (N); made in house; host or cells: E. coli
Description: Human indoleamine 2,3-dioxygenasae (IDO) with an N-terminal His tag was expressed in E. coli and purified to homogeneity. IDO catalyzes the oxidative cleavage of the pyrrole ring of the indole nucleus of tryptophan to yield N′-formylkynurenine. The assays were performed at room temperature as described in the literature using 95 nM IDO and 2 mM D-Trp in the presence of 20 mM ascorbate, 5 μM methylene blue and 0.2 mg/mL catalase in 50 mM potassium phosphate buffer (pH 6.5). The initial reaction rates were recorded by continuously following the absorbance increase at 321 nm due to the formation of N′-formlylkynurenine. […] The symbol “+” indicates IC50<[…]. The symbol “++” indicates […]. The symbol “+++” indicates IC50>[…].

P815 tumor = settings: pre-immunized immune-competent mice; cited from earlier work
LLC tumors = settings: C57B1/6 mice, versus placebo; cited from earlier work

T1 sequence (P14902 whole entry): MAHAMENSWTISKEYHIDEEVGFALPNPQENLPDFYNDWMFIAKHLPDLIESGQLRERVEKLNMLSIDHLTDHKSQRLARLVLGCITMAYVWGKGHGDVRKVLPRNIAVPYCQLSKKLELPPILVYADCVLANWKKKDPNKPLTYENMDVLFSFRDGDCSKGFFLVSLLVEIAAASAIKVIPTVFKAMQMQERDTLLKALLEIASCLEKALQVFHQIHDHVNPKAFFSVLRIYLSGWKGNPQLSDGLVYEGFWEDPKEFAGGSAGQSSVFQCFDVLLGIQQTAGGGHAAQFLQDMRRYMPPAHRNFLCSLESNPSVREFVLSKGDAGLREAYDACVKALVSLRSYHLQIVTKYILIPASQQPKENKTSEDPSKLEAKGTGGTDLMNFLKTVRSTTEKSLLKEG

## N#Cc1cccc(NC(=NO)c2ccoc2)c1 [Example 11, N-(3-cyanophenyl)-N′-hydroxy-furan-3-carboximidamide]
[1]
  IC50: > 10 µM

## Cn1cc(C[C@H](N)C(=O)O)c2ccccc21 [Example 1-MT, 1-methyl-tryptophan]
P815 tumor
  growth of tumors: inhibited
LLC tumors
  formation of tumors: markedly delayed

## N#Cc1cc(NC(=NO)c2ccoc2)ccc1F [Example 12, N-(3-cyano-4-fluorophenyl)-N′-hydroxyfuran-3-carboximidamide]
[1]
  IC50: > 10 µM
